This note sets out measurements from ChEMBL document CHEMBL3769386, “Targeting microsomal prostaglandin E2synthase-1 (mPGES-1): the development of inhibitors as an alternative to non-steroidal anti-inflammatory drugs (NSAIDs)” (Medchemcomm, 2015).

A value given as a limit tells only on which side of the number the result lay.

The target in experiment [1] is T1, Prostaglandin E synthase (Homo sapiens, UniProt O14684).
T1 sequence (O14684 whole entry): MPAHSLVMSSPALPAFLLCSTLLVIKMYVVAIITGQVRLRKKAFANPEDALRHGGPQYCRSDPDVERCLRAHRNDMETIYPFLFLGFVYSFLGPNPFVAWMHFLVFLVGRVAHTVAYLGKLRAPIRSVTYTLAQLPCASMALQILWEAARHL
The experiment is described as follows: Inhibition of microsomal PGES1 in ILbeta-stimulated human A549 cells using PGH2 as substrate preincubated for 15 mins followed by substrate addition measured after 1 min by RP-HPLC analysis. It is filed as cell-based.

Experiment [2] deals with Prostaglandin G/H synthase 1 (Homo sapiens, UniProt P23219). Kind of experiment: Inhibition of COX1 (unknown origin).
Sequence of Prostaglandin G/H synthase 1 (P23219 whole entry): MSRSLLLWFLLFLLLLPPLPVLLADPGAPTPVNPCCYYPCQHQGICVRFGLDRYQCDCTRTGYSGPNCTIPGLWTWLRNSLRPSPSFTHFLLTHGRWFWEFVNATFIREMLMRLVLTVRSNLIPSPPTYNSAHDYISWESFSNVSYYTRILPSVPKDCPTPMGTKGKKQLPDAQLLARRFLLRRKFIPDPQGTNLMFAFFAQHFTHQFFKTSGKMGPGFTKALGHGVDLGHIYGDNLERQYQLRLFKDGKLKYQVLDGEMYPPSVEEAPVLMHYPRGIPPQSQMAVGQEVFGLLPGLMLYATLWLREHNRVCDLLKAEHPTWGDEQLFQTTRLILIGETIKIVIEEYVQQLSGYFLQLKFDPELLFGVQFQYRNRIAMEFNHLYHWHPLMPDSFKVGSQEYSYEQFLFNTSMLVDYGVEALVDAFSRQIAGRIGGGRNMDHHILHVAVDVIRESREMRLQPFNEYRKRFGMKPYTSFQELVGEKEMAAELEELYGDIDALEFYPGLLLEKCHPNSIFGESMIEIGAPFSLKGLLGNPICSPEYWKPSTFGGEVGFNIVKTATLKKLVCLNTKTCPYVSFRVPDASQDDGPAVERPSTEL
The target of experiment [3] is T1, Prostaglandin E synthase. Kind of experiment: Inhibition of recombinant human microsomal PGES1 using PGH2 as substrate preincubated for 15 mins followed by substrate addition measured after 5 mins by enzyme immunoassay.
Experiment [4] deals with T1, Prostaglandin E synthase. Kind of experiment: Inhibition of microsomal PGES1 (unknown origin).
Experiment [5] deals with T1, Prostaglandin E synthase. The experiment is described as follows: Inhibition of human microsomal PGES1 using PGH2 as substrate incubated for 90 secs by MDA-TBA assay.
The nature of experiment [6]: Inhibition of recombinant rat microsomal PGES1 using PGH2 as substrate incubated for 90 secs by MDA-TBA assay.
Experiment [7] addresses T2, Prostaglandin G/H synthase 2 (Homo sapiens, UniProt P35354).
T2 sequence (P35354 whole entry): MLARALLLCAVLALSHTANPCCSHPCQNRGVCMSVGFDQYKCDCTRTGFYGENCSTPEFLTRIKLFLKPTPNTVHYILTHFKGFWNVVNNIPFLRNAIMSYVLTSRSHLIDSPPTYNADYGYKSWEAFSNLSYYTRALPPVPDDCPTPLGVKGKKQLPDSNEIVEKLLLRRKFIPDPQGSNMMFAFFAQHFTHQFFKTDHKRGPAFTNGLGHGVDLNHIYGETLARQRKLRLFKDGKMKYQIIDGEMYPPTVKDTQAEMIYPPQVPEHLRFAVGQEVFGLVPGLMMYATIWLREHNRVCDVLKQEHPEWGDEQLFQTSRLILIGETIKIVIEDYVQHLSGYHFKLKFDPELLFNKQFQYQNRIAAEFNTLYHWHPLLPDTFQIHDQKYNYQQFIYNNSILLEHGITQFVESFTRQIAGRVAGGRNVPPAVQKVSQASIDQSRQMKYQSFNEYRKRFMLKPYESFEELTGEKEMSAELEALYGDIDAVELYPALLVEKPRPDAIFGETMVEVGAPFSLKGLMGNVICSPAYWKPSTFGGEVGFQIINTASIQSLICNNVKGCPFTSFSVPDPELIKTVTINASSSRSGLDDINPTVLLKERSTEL
The experiment is described as follows: Inhibition of COX2 in IL1beta-induced human A549 cells using arachidonic acid as substrate assessed as 6-keto PGF1a formation preincubated for 10 mins followed by substrate addition measured after 30 mins by enzyme immunoassay. It is filed as cell-based.

In experiment [8] the target is T3, Prostaglandin E synthase (Mus musculus) (UniProt Q9JM51).
T3 sequence (whole entry): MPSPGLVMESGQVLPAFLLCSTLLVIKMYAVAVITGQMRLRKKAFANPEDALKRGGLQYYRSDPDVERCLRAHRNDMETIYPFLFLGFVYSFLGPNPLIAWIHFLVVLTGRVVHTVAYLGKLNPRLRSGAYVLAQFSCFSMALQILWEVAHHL
The experiment is described as follows: Inhibition of microsomal PGES1 in mouse J774 cells assessed as reduction of LPS-induced PGE2 production inhibition at 100 uM by radioimmuno assay in presence of radio labelled PGE2. It is filed as cell-based.

In experiment [9] the target is T1, Prostaglandin E synthase. The experiment is described as follows: Inhibition of microsomal PGES1 in ILbeta/TNFalpha-stimulated human A549 cells using PGH2 as substrate preincubated for 15 mins followed by substrate addition measured after 1 min by LC-MS/MS analysis. The class given is cell-based.
Experiment [10] deals with T4, Polyunsaturated fatty acid 5-lipoxygenase (Homo sapiens, UniProt P09917).
T4 sequence (P09917 whole entry): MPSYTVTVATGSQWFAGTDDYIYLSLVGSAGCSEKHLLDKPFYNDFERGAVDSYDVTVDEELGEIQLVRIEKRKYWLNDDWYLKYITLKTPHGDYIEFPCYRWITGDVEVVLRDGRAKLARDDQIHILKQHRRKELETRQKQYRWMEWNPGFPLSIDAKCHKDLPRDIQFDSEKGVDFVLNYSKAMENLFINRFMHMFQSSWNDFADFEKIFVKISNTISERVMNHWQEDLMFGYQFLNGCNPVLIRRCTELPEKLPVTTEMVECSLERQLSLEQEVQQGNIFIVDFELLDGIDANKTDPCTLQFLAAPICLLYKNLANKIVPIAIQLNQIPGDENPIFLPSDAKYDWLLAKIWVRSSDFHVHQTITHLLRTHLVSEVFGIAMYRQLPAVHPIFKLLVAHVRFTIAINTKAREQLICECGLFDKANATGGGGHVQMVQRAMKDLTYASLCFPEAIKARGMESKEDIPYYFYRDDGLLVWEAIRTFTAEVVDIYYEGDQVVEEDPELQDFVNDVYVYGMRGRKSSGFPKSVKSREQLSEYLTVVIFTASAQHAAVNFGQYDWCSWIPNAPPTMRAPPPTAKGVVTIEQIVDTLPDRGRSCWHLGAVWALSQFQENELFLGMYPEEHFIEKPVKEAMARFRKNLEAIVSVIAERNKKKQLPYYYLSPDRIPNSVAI
The experiment is described as follows: Inhibition of 5-lipooxygenase (unknown origin).

Experiment [11] in a line: Inhibition of recombinant rat microsomal PGES1 using PGH2 as substrate after 75 secs by MDA-TBA assay.
Experiment [12] deals with T1, Prostaglandin E synthase. Kind of experiment: Inhibition of human microsomal PGES1 using PGH2 as substrate incubated after 75 secs by MDA-TBA assay.

By inhibition is commonly meant the drop in the measured response relative to a control, in per cent.

`CC(=O)c1c(O)c(CC=C(C)C)c(O)c(C(c2ccccc2)c2c(O)cc(C)oc2=O)c1O` (stereo unspecified) gave an IC50 in experiment [1] of 1000 nM.
On to `CCCCCC(=O)Cc1cc(O)cc(O)c1C(=O)Oc1cc(O)c(C(=O)O)c(CCCCC)c1`, for which the IC50 in [2] was greater than 30000 nM; in experiment [1], 1150 nM.
In the case of `O=C(Nc1ccc2c(c1)c1ccccc1n2CCO)c1ccccc1C(F)(F)F`, in experiment [3], the IC50 stood at 900 nM.
The compound `CC(C)c1cc2c(c(O)c1O)[C@@]1(C(=O)O)CCCC(C)(C)[C@@H]1CC2` [CARNOSIC ACID] showed an IC50 in experiment [1] of 5000 nM.
Take `Cc1ccc(C)c(-c2cc(C(F)(F)F)nn2-c2ccc(S(N)(=O)=O)cc2)c1` [DIMETHYL CELECOXIB]: the IC50 in experiment [4] (read-out: IC50) came to 600 nM.
Take `CC(=O)c1ccccc1-c1cc2c(C)c(CC(C)(C)C(=O)O)n(Cc3ccc(Cl)cc3)c2cc1F`: in [4] (read-out: pIC50 (converted)), the IC50 is 3.98 nM.
On to `Cc1cc2nc(N3CCC(C(=O)NC4CCCC4)CC3)n(C(C)C)c2cc1C`, for which the IC50 was found to be 90 nM in experiment [5] and 900 nM in experiment [6].
For the compound `CCc1oc(=O)c(Cc2c(O)c(CC=C(C)C)c(O)c(C(C)=O)c2O)c(O)c1C` [ARZANOL], in experiment [7], the IC50 was no less than 30000 nM.
For `CC(C)c1cc2c(c(O)c1O)[C@@]13CCCC(C)(C)[C@@H]1C[C@@H]2OC3=O` [CARNOSOL], the IC50 in [1] is 5000 nM.
With `O=C1c2c(O)cc(O)cc2OC(c2ccc(O)cc2)C1O` (stereo unspecified), the inhibition in experiment [8] came out at 93.1%.
Take `CCCCCc1cc(OC(=O)c2c(O)cc(O)cc2CCCCC)cc(O)c1C(=O)O`: the IC50 in [2] is greater than 30000 nM; in experiment [1], 400 nM.
Consider `COc1cc(C(=O)NS(=O)(=O)c2ccccc2C)ccc1Cc1cn(C)c2ccc(NC(=O)OC3CCCC3)cc12` [ZAFIRLUKAST], for which the IC50 in experiment [9] stood at 18100 nM.
With `COc1cc(/C=C/C(=O)CC(=O)/C=C/c2ccc(O)c(OC)c2)ccc1O` [CURCUMIN], in experiment [1], the IC50 came to 200 nM.
As for `CCCCCCC(Sc1nc(Cl)cc(Nc2cccc(C)c2C)n1)C(=O)O` (stereo unspecified), the IC50 in experiment [10] came out at 2000 nM.
As for `O=C(Nc1cccc2ccccc12)c1cccc(NC(=O)c2ccccc2Cl)c1`, the IC50 in experiment [4] (read-out: IC50) came to 200 nM.
For the compound `COc1ccccc1-c1cc2c(C)c(CC(C)(C)C(=O)O)n(Cc3ccc(Cl)cc3)c2cc1F`, the IC50 in experiment [4] (read-out: pIC50 (converted)) was 6.92 nM.
Regarding `CCc1oc(=O)c(C(c2ccccc2)c2c(O)c(CC=C(C)C)c(O)c(C(C)=O)c2O)c(O)c1C` (stereo unspecified), the IC50 in experiment [1] amounted to 800 nM.
With `Cc1c(CC(C)(C)C(=O)O)n(Cc2ccc(Cl)cc2)c2cc(F)c(-c3ccccc3Cl)cc12`, in experiment [4] (read-out: pIC50 (converted)), the IC50 was 5.01 nM.
Consider `CCCCCC(=O)Cc1cc(O)cc2c1C(=O)Oc1cc(O)c(C(=O)O)c(CCCCC)c1O2` [PHYSODIC ACID], for which the IC50 in experiment [2] was greater than 30000 nM; in experiment [1] it was 430 nM.
Regarding `CC1=NN(C(N)=S)C(=O)/C1=N/Nc1cccc(Br)c1`, the values for the IC50 in experiment [11] and in experiment [12] were 620 nM and 1800 nM, respectively.
For `COc1cc(O)ccc1C1Oc2cc(O)cc(O)c2C(=O)C1O` (stereo unspecified), in [8], the inhibition came to 94.3%.
